# Like-named read-outs stand apart in the source and are kept apart here.
# Tests used:
# β3Gal-T5 [1] = biological target: T1, β3Gal-T5 (Homo sapiens, UniProt Q9Y2C3, M85T); test: Galactosyltransferase assay, partially purified secreted recombinant β3Gal-T5, saccharide acceptors; assay type: biochemical; settings: for β3Gal-T5 activity, substrate concentration 1 mM: acceptor 1 mM; for β3Gal-T5 activity, substrate concentration 5 mM: acceptor 5 mM; for donor substrate utilisation by β3Gal-T5: with the acceptor substrates tested (data not shown)
# T1 construct: designed to exclude the hydrophobic transmembrane segment and to encode amino acid residues 25-310; secretion signal of vector pAcGP67B (gp67); made in house; host or cells: baculovirus; Sf9 cells (media) and High Five cells (serum-free medium, partially purified)
# T1 sequence (Q9Y2C3 25-310 M85T): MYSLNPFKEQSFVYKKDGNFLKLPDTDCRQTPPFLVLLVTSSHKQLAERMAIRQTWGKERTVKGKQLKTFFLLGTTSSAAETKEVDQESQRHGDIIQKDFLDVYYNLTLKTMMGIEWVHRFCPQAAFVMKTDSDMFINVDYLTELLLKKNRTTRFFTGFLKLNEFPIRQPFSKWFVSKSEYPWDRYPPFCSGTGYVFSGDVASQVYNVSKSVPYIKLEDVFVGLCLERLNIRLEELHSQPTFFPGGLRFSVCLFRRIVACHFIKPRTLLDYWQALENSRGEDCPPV
# Excerpt: PCR product was cloned into the BamHI site of pAcGP67B (Pharmingen). […] This PCR product was cloned into the BamHI site of pVL1193 (Pharmingen). Both soluble and full length constructs were fully sequenced to confirm fidelity. Plasmids […]5-full were co-transfected with Baculo-GoldTM DNA (Pharmingen) as described previously (Bennett, […]. and Clausen, H. cDNA cloning and expression of a novel human UDP-N-acetyl-alpha-D-galactosamine. Polypeptide N-acetyl-galactosaminyl-transferase, GalNAc-T3. J. Biol. Chem. 271:17006-17012, 1996). Recombinant Baculo-virus were obtained after two successive amplifications in Sf9 cells grown in serum-containing medium, and titers of virus were estimated by titration in 24-well plates with monitoring of enzyme activities. […] J. Biol. […] J. Biol. […] Polypeptide N-acetyl-galactosaminyl-transferase, GalNAc-T3. J. Biol. Chem. 271:17006-17012, 1996). For large scale expression amplified virus was used to infect High FiveTM cells grown in serum-free media (Invitrogen) in upright roller bottles shaking at 140 rpm and 27° C. The kinetic properties were determined with partially purified, secreted forms of the enzymes. Semipurification of enzymes from serum-free medium of infected High-FiveTM cells was performed by sequential Amberlite, DEAE-Sephacel and 5-Sepharose chromatography as described previously ([…]., et al. […] J. Biol. Chem. 272:23503-23514, 1997). Comparisons of enzymes were performed relatively to the activity obtained with βGlcNAc-Bz1 (Tables II and III). Full length enzymes were assayed with 1% Triton CF54 homogenates of washed cells. […] Reaction products were quantified by Dowex-1 chromatography. […] P. and Clausen, H. […] J. Biol. Chem. 273:29295-29305, 1998). The transfer of Gal was evaluated after acid precipitation by filtration through Whatman GF/C glass fibre filters. […] Assays with glycolipid acceptors were conducted as previously described (Holmes, E. H. […] Arch Biochem Biophys 270:630-646, 1989) in reaction mixtures containing 2.5 μmol HEPES buffer, pH 7.2, μmol MnCl2, 100 μg taurodeoxycholate or Triton CF-54, 20 μg acceptor glycolipid, 15 nmol UDP-[^14C]-galactose (13,000 cpm/nmol) and enzyme in a total volume of 100 μl. Conditions for incubation and product isolation were as previously described (Id.).
# β3Gal-T5 [2] = biological target: T1, β3Gal-T5; test: Galactosyltransferase assay with glycolipid acceptors, β3Gal-T5; assay type: biochemical; settings: for β3Gal-T5 activity with glycolipid acceptor, Triton CF-54: 100 μg Triton CF-54/100 μl; for β3Gal-T5 activity with glycolipid acceptor, Triton CF-54 / β3Gal-T5 activity with glycolipid acceptor, TDOC: 20 μg glycolipid; for β3Gal-T5 activity with glycolipid acceptor, TDOC: 100 μg taurodeoxycholate/100 μl
# Description: The kinetic properties were determined with partially purified, secreted forms of the enzymes. Semipurification of enzymes from serum-free medium of infected High-Five™ cells was performed by sequential Amberlite, DEAE-Sephacel and 5-Sepharose chromatography as described previously (Wandall, H. H., Hassan, H., Mirgorodskaya, E., et al. Substrate specificities of three. members of the human UDP-N-acetyl-alpha-D-galactosamine:Polypeptide Nacetylgalactosaminyltransferase family, GalNAc-T1, -T2, and -T3. J. Biol. Chem. 272:23503-23514, 1997). Comparisons of enzymes were performed relatively to the activity obtained with βGlcNAc-Bz1 (Tables II and III). Full length enzymes were assayed with 1% Triton CF54 homogenates of washed cells. Enzyme assays were performed in 50 μl total reaction mixtures containing 25 mM Cacodylate (pH 7.5), 10 mM MnCl2, 0.25% Triton X-100, 100 μM UDP-[^14C]-Gal (2,600 cpm/nmol) (Amersham), and varying concentrations of acceptor substrates (Sigma) (see Table I for structures). Reaction products were quantified by Dowex-1 chromatography. […] The transfer of Gal was evaluated after acid precipitation by filtration through Whatman GF/C glass fibre filters. […] Assays with glycolipid acceptors were conducted as previously described (Holmes, E. H. Characterization and membrane organization of beta 1-3- and beta 1-4-galactosyltransferases from human colonic adenocarcinoma cell lines Cob 205 and SW403: basis for preferential synthesis of type 1 chain lacto-series carbohydrate structures. Arch Biochem Biophys 270:630-646, 1989) in reaction mixtures containing 2.5 μmol HEPES buffer, pH 7.2, μmol MnCl2, 100 μg taurodeoxycholate or Triton CF-54, 20 μg acceptor glycolipid, 15 nmol UDP-[^14C]-galactose (13,000 cpm/nmol) and enzyme in a total volume of 100 μl. Conditions for incubation and product isolation were as previously described (Id.).
Molecule,"β3Gal-T5 activity, substrate concentration 1 mM (β3Gal-T5 [1]) [nmol/min/mL]","β3Gal-T5 activity, substrate concentration 5 mM (β3Gal-T5 [1]) [nmol/min/mL]",other results
GlcNAcβ1-3Galβ1-4G1cNAcβ1-3Galβ1-4Glcβ1-Cer [nLC5],–,–,"activity, fold lower than with Lc3 (β3Gal-T5 [2]): ~3 fold; β3Gal-T5 activity with glycolipid acceptor, Triton CF-54 (β3Gal-T5 [2]): 0.4 µmol/h/mg; β3Gal-T5 activity with glycolipid acceptor, TDOC (β3Gal-T5 [2]): 1.6 µmol/h/mg"
Cc1cc(=O)oc2cc(O[C@@H]3OC[C@@H](O[C@@H]4O[C@H](CO)[C@H](O)[C@H](O)[C@H]4O)[C@H](O)[C@H]3O)ccc12 [β-Gal-(1–4)-β-D-Xyl-1-Me-umb],0.0,0.0,–
O=[N+]([O-])c1ccccc1O[C@@H]1O[C@H](CO)[C@H](O)[C@H](O)[C@H]1O [β-D-Gal-1-o-Nph],0.0,0.0,–
CC(=O)N[C@@H]1[C@@H](O)[C@H](O)[C@@H](CO)O[C@H]1Sc1ccc([N+](=O)[O-])cc1 [β-D-GlcNAc-1-thio-p-Nph],1.1,3.4,–
CC(=O)N[C@H]1[C@@H](OP(=O)(O)OP(=O)(O)OC[C@H]2O[C@@H](n3ccc(=O)[nH]c3=O)[C@H](O)[C@@H]2O)O[C@H](CO)[C@@H](O)[C@@H]1O [UDPGlcNAc],–,–,donor substrate utilisation by β3Gal-T5 (β3Gal-T5 [1]): did not utilize
GalNAcβ1-3Galα1-4Galβ1-4Glcβ1-Cer [Gβ4],–,–,"β3Gal-T5 activity with glycolipid acceptor, Triton CF-54 (β3Gal-T5 [2]): 0.09 µmol/h/mg; β3Gal-T5 activity with glycolipid acceptor, TDOC (β3Gal-T5 [2]): 0.6 µmol/h/mg"
CC(=O)NC1C(OC2C(OCC3OC(O)C(O)C(OC4OC(CO)C(O)C(O)C4OC4OC(CO)C(O)C(O)C4NC(C)=O)C3O)OC(CO)C(O)C2O)OC(CO)C(O)C1O [β-D-GlcNAc-(1–2)-α-D-Man-(1–3)-[β-D-GlcNAc-(1–2)-α-D-Man-(1–6)-]D-Man],0.0,0.0,–
GalNAcβ1-4Galβ1-4Glcβ1-Cer [Gg3],–,–,"β3Gal-T5 activity with glycolipid acceptor, Triton CF-54 (β3Gal-T5 [2]): 0.005 µmol/h/mg; β3Gal-T5 activity with glycolipid acceptor, TDOC (β3Gal-T5 [2]): 0.09 µmol/h/mg"
CC(=O)N[C@H]1[C@@H](OP(=O)(O)OP(=O)(O)OC[C@H]2O[C@@H](n3ccc(=O)[nH]c3=O)[C@H](O)[C@@H]2O)O[C@H](CO)[C@H](O)[C@@H]1O [UDP-GalNAc],–,–,donor substrate utilisation by β3Gal-T5 (β3Gal-T5 [1]): did not utilize
Glcβ1-Cer [GlcCer],–,–,"β3Gal-T5 activity with glycolipid acceptor, TDOC (β3Gal-T5 [2]): 0.04 µmol/h/mg"
Cc1cc(=O)oc2cc(O[C@@H]3O[C@H](CO)[C@@H](O)[C@H](O)[C@H]3O)ccc12 [β-D-Glc-Me-umb],0.0,0.0,–
CC(=O)N[C@H]1[C@H](Oc2ccc3c(C)cc(=O)oc3c2)O[C@H](CO)[C@H](O)[C@@H]1O [β-D-GalNAc-Me-umb],0.0,0.0,–
CC(=O)N[C@@H]1[C@@H](O)[C@H](O)[C@@H](CO)O[C@@H]1O [D-GIcNAc],0.5,1.2,–

# More lines, main results first:
"β3Gal-T5 activity, substrate concentration 1 mM (β3Gal-T5 [1]) [nmol/min/mL]","β3Gal-T5 activity, substrate concentration 5 mM (β3Gal-T5 [1]) [nmol/min/mL]",Molecule,other results
4.0,13.0,COC1OC(COC2OC(CO)C(O)C(O)C2NC(C)=O)C(O)C(O)C1O [β-D-GlcNAc-(1–6)-α-D-Man-1-Me],–
0.0,0.0,CC(=O)N[C@H]1[C@@H](OCc2ccccc2)O[C@H](CO)[C@H](O)[C@@H]1O [α-D-GalNAc-Bzl],–
2.6,7.5,CC(=O)N[C@H]1[C@H](Oc2ccc3c(C)cc(=O)oc3c2)O[C@H](CO)[C@@H](O)[C@@H]1O [β-D-GlcNAc-Me-umb],–
27.4,87.4,CO[C@@H]1O[C@H](CO)[C@H](O)[C@H](O[C@@H]2O[C@H](CO)[C@@H](O)[C@H](O)[C@H]2NC(C)=O)[C@H]1O [β-D-GlcNAc-(1–3)-β-D-Gal-1-Me],"Vmax (β3Gal-T5 [1]; Table V): 972.9 pmol/min; Km (β3Gal-T5 [1]; Table V, read-out: Km): 1800 µM; Km (β3Gal-T5 [1]; acceptor substrate, read-out: apparent Km of β3Gal-T5): 1800 µM"
0.0,0.0,CC(=O)N[C@H]1[C@@H](OCc2ccccc2)O[C@H](CO)[C@@H](O)[C@@H]1O [α-D-GlcNAc-Bzl],–
0.0,0.0,O=[N+]([O-])c1ccccc1O[C@H]1O[C@H](CO)[C@H](O)[C@H](O)[C@H]1O [α-D-Gal-1-o-Nph],–
2.1,6.9,CC(=O)N[C@H]1[C@H](Oc2ccc([N+](=O)[O-])cc2)O[C@H](CO)[C@@H](O)[C@@H]1O [β-D-GlcNAc-1-p-Nph],–
0.0,3.0,CC(=O)NC1C(OC2C(O)OC(CO)C(O)C2O)OC(CO)C(O)C1O [β-D-GlcNAc-(1–2)-α-D-Man],–

# — patent publication US7332279B2 (Glycozym APS, priority 1999, dated 2008)
